Here are results for 24 molecules from ChEMBL document CHEMBL1136307, “Novel chromene derivatives as TNF-alpha inhibitors” (Bioorg Med Chem Lett, 2003).

In general, IC50 refers to the concentration that inhibits the measured activity by half. A lower IC50 goes with greater potency in that assay.

The nature of this experiment: Inhibitory activity against TNF-alpha production in human peripheral blood mononuclear cells(PBMC) using an ELISA assay. In kind it is functional.
`COc1ccc2c(c1)OC(c1cc(OC)c(OC)c(OC)c1)C(C(C)=O)=C2` (centres undefined) gave an IC50 of 0.1 µM. With `COc1ccc2c(c1)OC(c1cc(OC)c(OC)c(OC)c1)C(C=O)=C2` (centres undefined) the figure was 0.6 µM; with `COc1ccc2c(c1)OC(c1cc(OC)c(OC)c(OC)c1)C(C(=O)NC(C)(C)C)=C2` (centres undefined), above 50 µM. With `CCCC(=O)C1=Cc2ccc(OC)cc2OC1c1cc(OC)c(OC)c(OC)c1` (centres undefined) the figure was 4.7 µM; with `COc1ccc2c(c1)OC(c1cc(OC)c(OC)c(OC)c1)C(C(=O)OC(C)C)=C2` (centres undefined), 12 µM; with `COc1ccc2c(c1)OC(c1cc(OC)c(OC)c(OC)c1)C(C#N)=C2` (centres undefined), 0.6 µM. With `COc1ccc2c(c1)OC(c1cc(OC)c(OC)c(OC)c1)C(/C=N/O)=C2` (centres undefined) the figure was 4.1 µM; with `COc1ccc2c(c1)OC(c1cc(OC)c(OC)c(OC)c1)C(C(=O)OC(C)(C)C)=C2` (centres undefined), 13 µM. In turn, `CNC(=O)C1=Cc2ccc(OC)cc2OC1c1cc(OC)c(OC)c(OC)c1` (centres undefined) returned an IC50 of 8.1 µM. With `COc1ccc2c(c1)OC(c1cc(OC)c(OC)c(OC)c1)C(C(N)=O)=C2` (centres undefined) the figure was 0.6 µM; with `CCCCNC(=O)C1=Cc2ccc(OC)cc2OC1c1cc(OC)c(OC)c(OC)c1` (centres undefined), 31.3 µM; with `COc1ccc2c(c1)OC(c1cc(OC)c(OC)c(OC)c1)C(C(=O)Nc1ccccc1)=C2` (centres undefined), above 50 µM. With `CCOC(=O)C1=Cc2ccc(OC)cc2OC1c1cc(OC)c(OC)c(OC)c1` (centres undefined) the figure was 7 µM; with `CCNC(=O)C1=Cc2ccc(OC)cc2OC1c1cc(OC)c(OC)c(OC)c1` (centres undefined), 17.9 µM. With `COc1ccc2c(c1)OC(c1cc(OC)c(OC)c(OC)c1)C(C(=O)O)=C2` (centres undefined) the figure was above 50 µM. `COc1ccc2c(c1)OC(c1cc(OC)c(OC)c(OC)c1)C(C(=O)OCCc1ccccc1)=C2` (centres undefined) came in with an IC50 above 50 µM. Then `COc1ccc2c(c1)OC(c1cc(OC)c(OC)c(OC)c1)C(CO)=C2` (centres undefined), with 2.4 µM; and `COc1ccc2c(c1)OC(c1cc(OC)c(OC)c(OC)c1)C=C2` (centres undefined), with 11.6 µM; and `COc1ccc2c(c1)OC(c1cc(OC)c(OC)c(OC)c1)C(C(=O)NC(C)C)=C2` (centres undefined), with 41.6 µM. `COc1ccc2c(c1)OC(c1cc(OC)c(OC)c(OC)c1)C(C(=O)N1CCCCC1)=C2` (centres undefined) displayed an IC50 of 48 µM.

For the molecule `COc1ccc2c(c1)OC(c1cc(OC)c(OC)c(OC)c1)C(C(=O)N(C)C)=C2` (centres undefined), the IC50 was above 50 µM.

In turn, `COC(=O)C1=Cc2ccc(OC)cc2OC1c1cc(OC)c(OC)c(OC)c1` (centres undefined) returned an IC50 of 2 µM.

In turn, `CCOCC1=Cc2ccc(OC)cc2OC1c1cc(OC)c(OC)c(OC)c1` (centres undefined) gave an IC50 of 1.1 µM. With `COc1ccc2c(c1)OC(c1cc(OC)c(OC)c(OC)c1)C(C(=O)N(C)OC)=C2` (centres undefined) the figure was 31.1 µM.
